Reference: EP0017976A2, “Process for preparing imidazole derivatives” (F. HOFFMANN-LA ROCHE & CO. Aktiengesellschaft, priority 1979, dated 1980)

How the values were obtained:
[1] = test system: Schistosoma mansoni; test: Schistosomicidal effect: share of living and dead worm pairs in liver vessels of infected mice, treated vs untreated; VD50 by probit method; format: in vivo; settings: mice infected with cercariae of Schistosoma mansoni; qualitative statement only, VD50 not given
Text: Die schistosomicide Wirkung wurde ermittelt durch Vergleich des prozentualen Anteils lebender und toter Wurmpaare in den Gefässen der Leber sowohl bei mit Cercarien von Schistosoma mansoni infizierten, behandelten Mäusen als auch bei infizierten aber unbehandelten Kontrolltieren. Die Bestimmung der VD50 (Vermicide Dosis 50%: Dosis, die 50% der Wurmpaare abtötet) erfolgte nach der Probitmethode.

[2] = test system: ventralen Prostata und der Samenblase; test: Antiandrogenic effect: weight decrease of ventral prostate and seminal vesicle in male sterilised rats; format: in vivo, Ratten; settings: qualitative statement only
Text: Die antiandrogene Wirkung wurde durch Bestimmung der Gewichtsabnahme der ventralen Prostata und der Samenblase von männlichen sterilisierten Ratten ermittelt.

SMILES | schistosomicide Wirkung [1] | antiandrogene Wirkung [2]
CC1(C)NC(=O)N(c2ccc(F)c(C(F)(F)F)c2)C1=N [1-(3-Trifluormethyl-4-fluor-phenyl)-5-imino-4,4-dimethyl-2-imidazolidinon] | starken schistosomiciden Wirkung | 
CC1(C)NC(=O)N(c2ccc(F)c(Cl)c2)C1=O [3-(3-Chlor-4-fluor-phenyl)-5,5-dimethylhydantoin] |  | antiandrogen wirksame
CC1(C)NC(=O)N(c2ccc(F)c(C(F)(F)F)c2)C1=O [3-(3-Trifluormethyl-4-fluorphenyl)-5,5-dimethyl-hydantoin] | starken schistosomiciden Wirkung | 
